Measurements from patent US10905729B1, “Formulations and methods for wound treatment” (Sorush, LLC, priority 2011, dated 2021).

Experiment: Chemical analysis of the extract for the antibiotics (HPLC-MS / MS)
Assay type: physicochemical
Details: added at 0.003% each; analysed about two weeks after formation of the extract
Method: 10 grams of dried Lawsonia inermis leaves (www.ETSY.com) were placed in a beaker and 100 ml of distilled water were added. The mixture was stirred for 2 hours at room temperature to obtain an aqueous Lawsonia inermis extract designated as a 10% w/w or w/v extract. […] The Lawsonia inermis extract was analyzed for antibiotic activity and for the presence of the antibiotics about two weeks after formation of the extract.
A chemical analysis was performed on the extract. […] Polymyxin B analysis was performed on a Thermo Finnigan LCQ MS.

Polymyxin B
antibiotic not detected in the extract at a level of: < 960 nanograms/ml

Gentamicin [Gentamycin]
antibiotic not detected in the extract at a level of: < 15.0 nanograms/ml
